The values below come from article PMC7998669, “7-(2-Anilinopyrimidin-4-yl)-1-benzazepin-2-ones Designed by a “Cut and Glue” Strategy Are Dual Aurora A/VEGF-R Kinase Inhibitors” (Molecules, 2021).

Where only a bound is given, the exact number is not on record here.

What all share (assay): radiometric 33PanQinase protein kinase assay
Holding throughout (type): biochemical
Conditions in all cases: 1 µM ATP

For assay [1], the target named is T1, IGF1-R (Homo sapiens, UniProt P08069).
T1 construct: host or cells: Sf9 (baculovirus)

Assay [2] has as its target T2, SAK (Homo sapiens, UniProt O00444).
T2 construct: host or cells: Sf9 (baculovirus)

Assay [3] addresses T3, PDGFR-beta (Homo sapiens, UniProt P09619).
T3 construct: host or cells: Sf9 (baculovirus)

Assay [4] concerns the target T4, PAK4 (Homo sapiens, UniProt O96013).
T4 construct: host or cells: Sf9 (baculovirus)

Assay [5] deals with T5, PLK1 (Homo sapiens, UniProt P53350).
T5 construct: host or cells: Sf9 (baculovirus)

In assay [6] the target is T6, ARK5 (Homo sapiens, UniProt O60285).
T6 construct: host or cells: Sf9 (baculovirus)

For assay [7], the target named is T7, FLT3 (Homo sapiens, UniProt P36888).
T7 construct: host or cells: Sf9 (baculovirus)

For assay [8], the target named is T8, CK2-alpha1 (Homo sapiens, UniProt P68400).
T8 construct: host or cells: Sf9 (baculovirus)

For assay [9], the target named is T9, EPHB4 (Homo sapiens, UniProt P54760).
T9 construct: host or cells: Sf9 (baculovirus)

The target of assay [10] is T10, CDK2/CycA (Homo sapiens, UniProt P24941).
T10 construct: host or cells: Sf9 (baculovirus)

The target in assay [11] is T11, FAK (Homo sapiens, UniProt Q05397).
T11 construct: host or cells: Sf9 (baculovirus)

For assay [12], the target named is T12, PDK1 (Homo sapiens, UniProt O15530).
T12 construct: host or cells: Sf9 (baculovirus)

The target in assay [13] is T13, INS-R (Homo sapiens, UniProt P06213).
T13 construct: host or cells: Sf9 (baculovirus)

Assay [14] has as its target T14, TIE2 (Homo sapiens, UniProt Q02763).
T14 construct: host or cells: Sf9 (baculovirus)

T2 sequence (O00444 whole entry): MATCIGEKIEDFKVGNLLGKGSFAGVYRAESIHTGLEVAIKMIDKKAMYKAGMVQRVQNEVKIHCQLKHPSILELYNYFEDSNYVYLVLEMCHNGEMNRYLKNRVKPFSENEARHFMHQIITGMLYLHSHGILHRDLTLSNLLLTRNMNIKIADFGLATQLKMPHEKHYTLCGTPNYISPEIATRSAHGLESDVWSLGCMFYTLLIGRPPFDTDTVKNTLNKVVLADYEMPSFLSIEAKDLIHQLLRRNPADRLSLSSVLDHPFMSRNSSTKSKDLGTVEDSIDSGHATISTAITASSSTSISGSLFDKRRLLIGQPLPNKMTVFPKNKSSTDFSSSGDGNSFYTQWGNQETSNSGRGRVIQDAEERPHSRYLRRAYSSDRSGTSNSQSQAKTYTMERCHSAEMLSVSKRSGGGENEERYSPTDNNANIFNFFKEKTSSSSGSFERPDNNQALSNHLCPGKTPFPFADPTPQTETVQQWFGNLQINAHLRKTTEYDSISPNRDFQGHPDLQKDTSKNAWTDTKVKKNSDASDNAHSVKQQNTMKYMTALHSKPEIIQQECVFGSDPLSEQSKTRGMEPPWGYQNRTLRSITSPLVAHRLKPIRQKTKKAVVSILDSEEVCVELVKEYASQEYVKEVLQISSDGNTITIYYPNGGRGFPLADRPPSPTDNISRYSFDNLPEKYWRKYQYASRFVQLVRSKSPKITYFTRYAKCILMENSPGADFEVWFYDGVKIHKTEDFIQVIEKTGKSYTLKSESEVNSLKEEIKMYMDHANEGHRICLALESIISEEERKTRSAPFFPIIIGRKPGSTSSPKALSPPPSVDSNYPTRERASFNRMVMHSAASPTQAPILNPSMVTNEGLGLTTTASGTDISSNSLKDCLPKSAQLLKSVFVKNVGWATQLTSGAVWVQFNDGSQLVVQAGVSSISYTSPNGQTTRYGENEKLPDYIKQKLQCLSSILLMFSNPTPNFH
T8 sequence (P68400 whole entry): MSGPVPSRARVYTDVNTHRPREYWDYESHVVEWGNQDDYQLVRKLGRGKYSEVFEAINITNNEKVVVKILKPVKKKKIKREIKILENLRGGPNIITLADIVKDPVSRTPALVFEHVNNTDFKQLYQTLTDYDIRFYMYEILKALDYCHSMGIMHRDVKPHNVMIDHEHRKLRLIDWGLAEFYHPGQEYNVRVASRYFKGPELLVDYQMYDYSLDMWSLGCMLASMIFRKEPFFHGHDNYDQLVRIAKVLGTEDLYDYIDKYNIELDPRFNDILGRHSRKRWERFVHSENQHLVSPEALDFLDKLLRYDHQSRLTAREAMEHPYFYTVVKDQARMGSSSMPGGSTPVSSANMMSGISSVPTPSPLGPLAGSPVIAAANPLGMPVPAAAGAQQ
T4 sequence (O96013 whole entry): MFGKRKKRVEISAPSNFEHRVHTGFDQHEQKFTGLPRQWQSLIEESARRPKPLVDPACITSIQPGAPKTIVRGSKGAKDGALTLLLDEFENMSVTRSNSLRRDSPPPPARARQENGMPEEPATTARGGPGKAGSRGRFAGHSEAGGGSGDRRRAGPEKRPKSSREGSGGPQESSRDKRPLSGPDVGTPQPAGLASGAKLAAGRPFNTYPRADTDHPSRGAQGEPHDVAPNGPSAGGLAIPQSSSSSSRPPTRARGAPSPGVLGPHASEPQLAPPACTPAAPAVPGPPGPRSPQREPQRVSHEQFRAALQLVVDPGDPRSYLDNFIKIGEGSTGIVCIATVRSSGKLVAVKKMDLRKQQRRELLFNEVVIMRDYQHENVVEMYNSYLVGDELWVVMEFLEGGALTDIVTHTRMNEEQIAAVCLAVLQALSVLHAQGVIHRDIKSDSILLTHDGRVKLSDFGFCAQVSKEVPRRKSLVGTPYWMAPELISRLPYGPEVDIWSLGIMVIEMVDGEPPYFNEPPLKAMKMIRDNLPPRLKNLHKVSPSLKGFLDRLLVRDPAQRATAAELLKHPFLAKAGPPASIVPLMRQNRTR
T5 sequence (P53350 whole entry): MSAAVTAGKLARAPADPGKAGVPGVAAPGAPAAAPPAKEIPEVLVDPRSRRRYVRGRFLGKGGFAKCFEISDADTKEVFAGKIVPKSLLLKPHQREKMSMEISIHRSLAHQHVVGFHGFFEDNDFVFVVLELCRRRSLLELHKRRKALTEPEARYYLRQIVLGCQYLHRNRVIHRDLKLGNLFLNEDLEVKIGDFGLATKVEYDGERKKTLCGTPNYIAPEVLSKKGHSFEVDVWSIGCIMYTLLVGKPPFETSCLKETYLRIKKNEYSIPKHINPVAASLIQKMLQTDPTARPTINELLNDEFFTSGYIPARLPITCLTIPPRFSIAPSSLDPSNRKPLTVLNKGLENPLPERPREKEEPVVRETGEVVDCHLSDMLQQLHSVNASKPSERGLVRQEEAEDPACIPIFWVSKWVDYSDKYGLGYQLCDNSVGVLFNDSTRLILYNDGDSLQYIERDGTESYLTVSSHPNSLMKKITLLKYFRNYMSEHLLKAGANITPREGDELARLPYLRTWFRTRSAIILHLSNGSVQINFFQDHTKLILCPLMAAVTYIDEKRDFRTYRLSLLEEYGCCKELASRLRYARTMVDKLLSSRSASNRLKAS
T11 sequence (Q05397 whole entry): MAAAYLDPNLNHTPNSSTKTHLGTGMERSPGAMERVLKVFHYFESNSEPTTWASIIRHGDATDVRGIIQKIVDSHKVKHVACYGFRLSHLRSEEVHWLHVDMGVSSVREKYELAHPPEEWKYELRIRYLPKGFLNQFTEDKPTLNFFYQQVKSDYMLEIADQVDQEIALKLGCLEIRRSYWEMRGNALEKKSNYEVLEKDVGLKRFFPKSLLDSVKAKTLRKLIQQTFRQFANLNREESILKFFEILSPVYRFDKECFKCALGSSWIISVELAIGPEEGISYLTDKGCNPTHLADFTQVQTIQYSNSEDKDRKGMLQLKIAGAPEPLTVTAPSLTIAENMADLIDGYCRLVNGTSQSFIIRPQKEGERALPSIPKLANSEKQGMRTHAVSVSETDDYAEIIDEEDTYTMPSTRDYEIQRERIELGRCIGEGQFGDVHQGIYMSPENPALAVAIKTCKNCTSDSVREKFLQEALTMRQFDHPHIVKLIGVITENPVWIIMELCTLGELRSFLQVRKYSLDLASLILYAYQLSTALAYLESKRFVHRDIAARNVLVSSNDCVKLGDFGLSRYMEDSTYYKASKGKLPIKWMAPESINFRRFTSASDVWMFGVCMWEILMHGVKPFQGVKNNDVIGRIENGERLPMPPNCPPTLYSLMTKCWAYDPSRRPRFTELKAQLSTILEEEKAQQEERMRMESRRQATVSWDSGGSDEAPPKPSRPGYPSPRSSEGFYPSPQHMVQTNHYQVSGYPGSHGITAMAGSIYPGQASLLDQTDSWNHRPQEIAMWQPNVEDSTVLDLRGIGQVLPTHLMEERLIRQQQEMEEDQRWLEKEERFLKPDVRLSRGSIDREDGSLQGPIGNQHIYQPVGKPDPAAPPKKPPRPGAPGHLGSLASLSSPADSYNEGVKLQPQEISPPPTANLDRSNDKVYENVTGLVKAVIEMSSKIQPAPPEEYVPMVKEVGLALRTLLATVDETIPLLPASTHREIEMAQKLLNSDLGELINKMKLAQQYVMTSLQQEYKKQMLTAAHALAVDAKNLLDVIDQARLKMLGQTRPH
T1 sequence (P08069 31-1367): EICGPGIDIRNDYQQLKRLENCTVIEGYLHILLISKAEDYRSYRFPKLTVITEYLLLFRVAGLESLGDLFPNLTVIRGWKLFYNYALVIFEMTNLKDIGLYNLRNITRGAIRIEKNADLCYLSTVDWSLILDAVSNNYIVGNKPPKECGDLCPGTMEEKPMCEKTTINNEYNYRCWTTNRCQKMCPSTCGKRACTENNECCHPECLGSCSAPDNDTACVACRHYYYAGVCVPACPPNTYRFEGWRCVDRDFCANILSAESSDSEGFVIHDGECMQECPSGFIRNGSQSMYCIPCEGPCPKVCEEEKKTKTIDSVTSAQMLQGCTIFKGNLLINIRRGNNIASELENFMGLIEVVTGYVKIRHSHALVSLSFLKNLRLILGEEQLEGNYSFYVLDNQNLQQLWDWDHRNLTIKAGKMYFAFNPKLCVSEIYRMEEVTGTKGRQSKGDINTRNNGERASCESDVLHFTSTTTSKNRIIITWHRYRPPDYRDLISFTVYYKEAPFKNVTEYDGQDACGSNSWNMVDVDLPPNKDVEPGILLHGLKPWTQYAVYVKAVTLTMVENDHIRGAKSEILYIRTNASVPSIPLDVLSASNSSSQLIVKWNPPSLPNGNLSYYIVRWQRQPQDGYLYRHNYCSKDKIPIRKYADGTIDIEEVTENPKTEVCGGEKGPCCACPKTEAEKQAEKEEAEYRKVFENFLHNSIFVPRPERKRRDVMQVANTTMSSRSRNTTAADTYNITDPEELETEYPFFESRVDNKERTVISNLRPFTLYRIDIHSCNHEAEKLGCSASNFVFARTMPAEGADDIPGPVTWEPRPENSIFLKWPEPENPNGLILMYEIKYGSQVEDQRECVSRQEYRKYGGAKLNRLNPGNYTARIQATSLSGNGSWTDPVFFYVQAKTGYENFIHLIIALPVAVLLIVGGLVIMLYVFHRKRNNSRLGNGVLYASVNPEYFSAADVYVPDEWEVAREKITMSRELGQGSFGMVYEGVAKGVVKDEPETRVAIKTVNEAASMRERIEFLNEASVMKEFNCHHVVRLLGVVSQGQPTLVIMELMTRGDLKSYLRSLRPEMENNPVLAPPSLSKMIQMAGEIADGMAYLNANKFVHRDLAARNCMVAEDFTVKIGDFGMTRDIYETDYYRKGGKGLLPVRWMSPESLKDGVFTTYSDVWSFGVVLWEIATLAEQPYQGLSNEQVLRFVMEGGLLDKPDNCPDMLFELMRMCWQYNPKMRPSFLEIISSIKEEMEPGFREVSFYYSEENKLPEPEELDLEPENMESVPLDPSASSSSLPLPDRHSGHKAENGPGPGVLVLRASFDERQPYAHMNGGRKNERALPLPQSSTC

Broadly, the IC50 is the concentration that gives 50% inhibition. Low values mean higher potency, high ones lower potency. On to `O=C1CCCc2cc(-c3ccnc(Nc4ccccc4)n3)ccc2N1` [Compound 2a, 7-(2-Anilinopyrimidin-4-yl)-1,3,4,5-tetrahydro-2H-1-benzazepin-2-one], for which the IC50 was > 100 µM in assay [1]; > 100 µM in [2]; 44 µM in assay [3]; > 100 µM in [4]; > 100 µM in assay [5]; > 100 µM in assay [6]. Further, the IC50 in [7] was 16 µM; in assay [8] it was > 100 µM; in assay [9], > 100 µM; in assay [10], 60 µM; in assay [11], > 100 µM; in assay [12], > 100 µM. The IC50 in assay [13] was > 100 µM; in assay [14], 19 µM.
